# Experimental data taken from patent publication US10774064B2 (Cadent Therapeutics, Inc., priority 2016, dated 2020).
# Biological target: T1, small-conductance Ca2+-activated K+ channels (SK channels, subtype 2) (Homo sapiens, UniProt Q9H2S1)
# T1 construct: expressed in transfected cells; host or cells: HEK293
# Test: whole-cell patch-clamp of ionic current through SK2 channels in HEK293 cells (SC100)
# Format: cell-based
# Details: concentration that increases the basal current by 100%; HEK293 cells expressing SK2 channels
# Protocol: The biological activity was determined as follows. The ionic current through small-conductance Ca^2+-activated K^+ channels (SK channels, subtype 2) was measured using the whole-cell configuration of the patch-clamp technique in a patch-clamp set-up using HEK293 tissue culture cells expressing SK2 channels as described in Hougaard et al., British Journal of Pharmacology 151, 655-665, May 8, 2007, the entire teachings of which are incorporated herein by reference. In one aspect, a compound is defined to be an SK PAM if the compound increases current in this assay, for example, if the SC100 value of the compound is less than or equal to 10 μM as determined by this assay. The SC100 value is defined to be the concentration of compound that increases the basal current by 100%.
row,Structure (SMILES),SC100
1,"Cc1cc(C)n(-c2cc3c(ncn3C)c(NC3CCC(F)(F)CC3)n2)n1 [Compound 266, N-(4,4-difluorocyclohexyl)-6-(3,5-dimethyl-1H-pyrazol-1-yl)-1-methyl-1H-imidazo[4,5-c]pyridin-4-amine]",++ (++ means 200 nM-1000 nM)
2,"Cc1cc(C)n(-c2nc(C#N)cc(NC3CCC(F)(F)C3)n2)n1 (stereo not drawn) [Compound 184, 6-((3,3-difluorocyclopentyl)amino)-2-(3,5-dimethyl-1H-pyrazol-1-yl)pyrimidine-4-carbonitrile]",+ (+ means >1 uM)
3,"CC1NC(c2cc(NC3CCC(F)(F)CC3)nc(-n3ccc(CF)n3)n2)=NO1 (stereo not drawn) [Compound 331, N-(4,4-difluorocyclohexyl)-2-(3-(fluoromethyl)-1H-pyrazol-1-yl)-6-(5-methyl-4,5-dihydro-1,2,4-oxadiazol-3-yl)pyrimidin-4-amine]",+ (+ means >1 uM)

# Same assay, conditions: whole-cell patch-clamp, HEK293 cells expressing SK2 channels; concentration that increases the basal current by 100%
row,Structure (SMILES),SC100 (μM)
1,"Cc1cc(NC2CCC(F)(F)CC2)nc(CO)n1 [IN11273-001-P1, (4-((4,4-difluorocyclohexyl)amino)-6-methylpyrimidin-2-yl) methanol]",+ (+ means >1 uM)
2,"COc1cc(-n2nc(C)cc2C)nc(NC2CCC(F)(F)CC2)n1 [NSSy6519, N-(4,4-difluorocyclohexyl)-4-(3,5-dimethyl-1H-pyrazol-1-yl)-6-methoxy pyrimidin-2-amine]",++ (++ means 200 nM-1000 nM)
3,CSc1cc(NC2CCC(F)(F)CC2)nc(-c2nc(C)cs2)n1 [IN11054-039-P1],++ (++ means 200 nM-1000 nM)
4,"Cc1cc(NC2CCC(F)(F)CC2)nc(-n2ccc(C3(N)CC3)n2)n1 [IN11218-026-P1, 2-(3-(1-aminocyclopropyl)-1H-pyrazol-1-yl)-N-(4,4-difluorocyclohexyl)-6-methylpyrimidin-4-amine hydrogen chloride]",+ (+ means >1 uM)
5,"COC(=O)N1CC(Oc2cc(NC3CCCCC3)nc(-c3nccs3)n2)C1 [NSSy6166, methyl 3-((6-(cyclohexylamino)-2-(thiazol-2-yl)pyrimidin-4-yl)oxy) azetidine-1-carboxylate]",+ (+ means >1 uM)
6,"Cc1cc(C)n(-c2cc3c(ncn3C3COC3)c(NC3CCC(F)(F)CC3)n2)n1 [NSSy5808, N-(4,4-difluorocyclohexyl)-6-(3,5-dimethyl-1H-pyrazol-1-yl)-1-(oxetan-3-yl)-1H-imidazo[4,5-c]pyridin-4-amine]",++ (++ means 200 nM-1000 nM)
7,Cc1nsc(-c2nc(NC3CCC(F)(F)CC3)cc(N3CCS(=O)(=O)CC3)n2)n1 [NSSy6125],++ (++ means 200 nM-1000 nM)
8,"Cc1csc(-c2cc(NC3CCC(F)(F)CC3)cc(C(C)O)c2)n1 (stereo not drawn) [IN11104-077-P1, 1-(3-((4,4-difluorocyclohexyl)amino)-5-(4-methylthiazol-2-yl)phenyl) ethan-1-ol]",+ (+ means >1 uM)
9,"CC(=O)c1cc(NC2CCC(F)(F)CC2)nc(-c2nc(C3CC3)cs2)n1 [IN11147-071-P1, 1-(2-(4-cyclopropylthiazol-2-yl)-6-((4,4-difluorocyclohexyl)amino)pyrimidin-4-yl) ethan-1-one]",+ (+ means >1 uM)
10,Cc1ccn(-c2nc(NC3CCC(N)CC3)cc(N3CCOCC3)n2)n1 (stereo not drawn) [NSSy6550],+ (+ means >1 uM)
11,Cc1nn(-c2nc(NC3CCC(F)(F)CC3)cc(N3CCOCC3)n2)cc1F [IN11216-050-P1],++ (++ means 200 nM-1000 nM)
12,Cc1nsc(-c2nc(NC3CCC(F)(F)CC3)cc(N3CCN4C(=O)OC[C@H]4C3)n2)n1 [NSSy6252],++ (++ means 200 nM-1000 nM)
13,COCc1cnc(-c2nc(C)cs2)nc1NC1CCC(F)(F)CC1 [IN11238-046-P1],+ (+ means >1 uM)
14,"Cc1cc(C)n(-c2cc(C#N)nc(NC3CCC(F)(F)CC3)n2)n1 [NSSy6721, 2-((4,4-difluorocyclohexyl)amino)-6-(3,5-dimethyl-1H-pyrazol-1-yl)pyrimidine-4-carbonitrile]",+ (+ means >1 uM)
15,Cc1nn(-c2cc(C(O)c3ncco3)cc(NC3CCC(F)(F)CC3)n2)c(C)c1F (stereo not drawn) [NSSy6473],++ (++ means 200 nM-1000 nM)
